# Where two headings read alike, the source gives them in different places.
# Tested on: E. coli
# Experiment: Antimicrobial susceptibility testing by dilution-temporal modeling (DTM) of growth in microwell plates with doubling dilutions of antibiotic
# Format: cell-based
# Conditions: Escherichia coli
# Source text: “Categorical agreement” is a term of art in AST that describes whether an organism is susceptible or resistant by each of two methods, typically a reference method and an investigative method. The reference method is broth microdilution and comes from the CLSI (M100).
# Each experiment involved a standard inoculum of bacteria grown at a concentration similar to what was recovered from the growth-detection step, which began with whole blood. The inoculum was automatically dispensed into the wells of a microwell plate. The wells contained doubling dilutions of standard antibiotics such as cefepime, meropenem, ciprofloxacin, and gentamicin (for gram-negative bacteria). A large number of wells enabled multiple replicates per condition, providing robustness to random dropouts or to growth variation.
# In each experiment, the growth and color of each well was monitored for growth by an automated imager. Serial images for each “bug-drug” combination were combined to create a unified picture of bacterial growth for each antibiotic, measure MICs, and determine any correction factors necessary to maximize S/I/R categorical agreement with reference MICs. […]
"MIC (cefepime-resistant strain of E. coli, FIG. 6B, within a single doubling dilution of reference-method MIC, read-out: MIC by the disclosed method (concentration at which growth falls off))",Compound,MIC (read-out: MIC by the disclosed method (concentration at which fall in growth is visible))
16 µg/mL,CO/N=C(\C(=O)N[C@@H]1C(=O)N2C(C(=O)[O-])=C(C[N+]3(C)CCCC3)CS[C@H]12)c1csc(N)n1 [cefepime],–
–,C[C@@H](O)[C@H]1C(=O)N2C(C(=O)O)=C(S[C@@H]3CN[C@H](C(=O)N(C)C)C3)[C@H](C)[C@H]12 [meropenem],0.5 µg/mL
